Data reported in patent US20260001886A1, “ENPP1 INHIBITORS I” (RE Ventures I, LLC, priority 2024, published 2026).

Assays:
human CA-II (CA2) = human CA-II (CA2) (Homo sapiens (Human), UniProt P00918); assay: Surface plasmon resonance, carbonic anhydrase II; details: 25° C., CM5 chip
Protocol: (§1) Cytiva Biacore S200, T200 and 3000 machines were used for all SPR experiments. […] For carbonic anhydrases, data were collected at a constant temperature of 25° C. Human CA-I (CA1) or human CA-II (CA2) was captured via standard EDC/NHS protocol on a Biacore CM5 chip using standard protocols in HBS-N buffer (10 mM HEPES (pH 7.4), 150 mM NaCl) at ˜2000 RU. The experiments were run in PBS buffer containing 0.05% Tween 20 and 3% DMSO. All compounds were initially screened at concentrations ranging from 23 nM to 50 µM or 4.6 nM to 10 µM, injecting from the lowest to highest concentrations and adjusting appropriately for each compound for repeat experiments. Scrubber 2 (Biologic software) was used to process and analyse SPR data. […] Data for the inhibitors were referenced to those for a blank surface and blank injections to normalise for non-specific binding and drift. A DMSO calibration was run to remove excluded volume effect of binding responses between reference and target surface.

human CA-I (CA1) = human CA-I (CA1) (Homo sapiens (Human), UniProt P00915); assay: Surface plasmon resonance, carbonic anhydrase I; details: 25° C., CM5 chip
Protocol: as §1

Human ENPP1 = Human ENPP1 (Homo sapiens (Human), UniProt P22413)
Sequence of Human ENPP1 (P22413 whole entry): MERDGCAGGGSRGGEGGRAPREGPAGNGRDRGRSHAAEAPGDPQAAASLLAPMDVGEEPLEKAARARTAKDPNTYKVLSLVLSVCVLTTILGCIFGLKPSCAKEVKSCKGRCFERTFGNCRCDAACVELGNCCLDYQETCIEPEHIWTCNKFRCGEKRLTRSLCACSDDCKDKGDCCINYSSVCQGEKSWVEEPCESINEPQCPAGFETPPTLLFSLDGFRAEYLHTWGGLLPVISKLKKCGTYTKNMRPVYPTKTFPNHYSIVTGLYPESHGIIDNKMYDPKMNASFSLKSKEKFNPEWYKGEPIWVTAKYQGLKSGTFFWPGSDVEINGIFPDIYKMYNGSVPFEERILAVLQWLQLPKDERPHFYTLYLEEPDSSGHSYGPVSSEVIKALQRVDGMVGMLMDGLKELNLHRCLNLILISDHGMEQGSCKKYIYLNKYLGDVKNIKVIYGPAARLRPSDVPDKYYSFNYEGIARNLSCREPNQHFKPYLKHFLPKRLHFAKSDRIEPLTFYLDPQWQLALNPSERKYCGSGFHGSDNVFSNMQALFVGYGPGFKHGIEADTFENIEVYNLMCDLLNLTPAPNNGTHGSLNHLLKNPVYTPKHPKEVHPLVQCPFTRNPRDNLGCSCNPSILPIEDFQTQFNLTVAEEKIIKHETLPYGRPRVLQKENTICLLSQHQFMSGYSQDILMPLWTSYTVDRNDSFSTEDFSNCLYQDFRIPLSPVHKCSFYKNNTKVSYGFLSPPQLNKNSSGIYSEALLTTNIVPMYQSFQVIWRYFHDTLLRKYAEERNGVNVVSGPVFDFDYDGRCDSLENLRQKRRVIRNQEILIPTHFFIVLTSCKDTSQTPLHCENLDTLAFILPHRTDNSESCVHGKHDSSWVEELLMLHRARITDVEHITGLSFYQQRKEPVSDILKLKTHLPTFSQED
Protocol: ENPP1 catalyses the hydrolysis of ATP into AMP+PPi. AMP production was monitored using Bellbrooks Transcreener AMP/GMP TR-FRET assay kit (Cat No. 3020-10K) according to the manufacturer's instructions. The assay was run with 50 mM Tris pH 7.5, 5 mM MgCl2, 150 mM NaCl, 0.005% Tween20 and distilled H2O. Antibody and tracer were diluted to 2 nM. […] Mouse ENPP1 was run at 15 pM with ATP at 400 nM. AMP produced in the assay by ENPP1 activity competes with a far-red tracer labelled AMP bound to an AMP specific antibody resulting in a decrease in TR-FRET. ENPP1 inhibition reduces AMP production and increases the TR-FRET signal.

Sequence of human CA-I (CA1) (P00915 whole entry): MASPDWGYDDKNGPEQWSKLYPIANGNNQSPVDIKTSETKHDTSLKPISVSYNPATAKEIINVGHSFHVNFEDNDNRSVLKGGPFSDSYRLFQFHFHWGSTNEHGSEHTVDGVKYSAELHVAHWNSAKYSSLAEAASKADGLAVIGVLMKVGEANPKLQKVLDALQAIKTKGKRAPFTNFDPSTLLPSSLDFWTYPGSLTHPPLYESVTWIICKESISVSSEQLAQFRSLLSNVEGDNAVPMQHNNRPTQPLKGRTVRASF

SMILES | CA2 human SPR pKD (human CA-II (CA2)) | CA1 human SPR pKD (human CA-I (CA1)) | EC50 (Human ENPP1) [nM]
Cc1cc2n(Cc3ccc([S@](C)(=N)=O)cc3)cc(C(C)C)c(=O)n2n1 (single isomer, unassigned) [Compound 9B] | <1 | <1 | –
CC(C)c1cn(Cc2ccc([S@](C)(=N)=O)cc2F)c2nc(C3CC3)nn2c1=O (single isomer, unassigned) [Compound 69] | <1 | <1 | –
Cc1nn2c(=O)c(C(C)C)cn(C[C@H]3C[C@H]4C[C@@H]3CN4S(N)(=O)=O)c2c1Cl [Compound 4, (1S,4S,5S)-5-((3-chloro-6-isopropyl-2-methyl-7-oxopyrazolo[1,5-a]pyrimidin-4(7H)-yl)methyl)-2-azabicyclo[2.2.1]heptane-2-sulfonamide] | 4.9 | 3.0 | –
Cc1nc2n(C[C@H]3C[C@H]4C[C@@H]3CN4S(N)(=O)=O)cc(-c3cccc(F)c3)c(=O)n2n1 [Compound 6, (1S,4S,5S)-5-((6-(3-fluorophenyl)-2-methyl-7-oxo-[1,2,4]triazolo[1,5-a]pyrimidin-4(7H)-yl)methyl)-2-azabicyclo[2.2.1]heptane-2-sulfonamide] | 3.6 | 3.0 | 100
CC(C)c1cn(Cc2ccc(S(C)(=N)=O)cc2F)c2nc(C3CC3)nn2c1=O (stereo not shown) [Compound 12, 2-cyclopropyl-4-(2-fluoro-4-(S-methylsulfonimidoyl)benzyl)-6-isopropyl-[1,2,4]triazolo[1,5-a]pyrimidin-7(4H)-one] | 3.0 | <1 | –
Cc1nc2n(C[C@H]3C[C@H]4C[C@@H]3CN4S(N)(=O)=O)cc(-c3ccc(F)cc3)c(=O)n2n1 [Compound 14, (1S,4S,5S)-5-((6-(4-fluorophenyl)-2-methyl-7-oxo-[1,2,4]triazolo[1,5-a]pyrimidin-4(7H)-yl)methyl)-2-azabicyclo[2.2.1]heptane-2-sulfonamide] | 3.0 | <1 | 3.98
CC(C)c1cn(Cc2c(F)cc(S(C)(=N)=O)cc2F)c2nc(C3CC3)nn2c1=O (stereo not shown) [Compound 26, 2-cyclopropyl-4-(2,6-difluoro-4-(S-methylsulfonimidoyl)benzyl)-6-isopropyl-[1,2,4]triazolo[1,5-a]pyrimidin-7(4H)-one] | 3.0 | 3.0 | 12.6
CC(C)c1cn(C[C@H]2C[C@H]3C[C@@H]2CN3S(N)(=O)=O)c2c3cccnc3nn2c1=O [Compound 41, (1S,4S,5S)-5-((3-Isopropyl-4-oxopyrido[2′,3′: 3,4]pyrazolo[1,5-a]pyrimidin-1 (4H)-yl)methyl)-2-azabicyclo[2.2.1]heptane-2-sulfonamide] | 3.0 | 3.0 | –
COc1cccc2c1nn1c(=O)c(C(C)C)cn(C[C@H]3C[C@H]4C[C@@H]3CN4S(N)(=O)=O)c21 [Compound 42, (1S,4S,5S)-5-((3-Isopropyl-7-methoxy-4-oxopyrimido[1,2-b]indazol-1 (4H)-yl)methyl)-2-azabicyclo[2.2.1]heptane-2-sulfonamide] | 4.5 | 3.0 | –
CC(C)c1cn(Cc2ccc(S(C)(=N)=O)cc2)c2cc(C3CC3)nn2c1=O (stereo not shown) [Compound 57, 2-Cyclopropyl-6-isopropyl-4-(4-(S-methylsulfonimidoyl)benzyl)pyrazolo[1,5-a]pyrimidin-7(4H)-one] | 3.0 | <1 | –
CC(C)c1cn(Cc2ccc(S(C)(=N)=O)cc2F)c2cc(C3CC3)nn2c1=O (stereo not shown) [Compound 62, 2-Cyclopropyl-4-(2-fluoro-4-(S-methylsulfonimidoyl)benzyl)-6-isopropylpyrazolo[1,5-a]pyrimidin-7(4H)-one] | 3.0 | <1 | –
